Reference: patent US9688695B2, “Imidazothiadiazole and imidazopyrazine derivatives as protease activated receptor 4 (PAR4) inhibitors for treating platelet aggregation” (BRISTOL-MYERS SQUIBB COMPANY, priority 2012, dated 2017)
Where a name gives a salt, the structure may show the parent alone.

biological target: PAR4 (Homo sapiens (Human), UniProt Q96RI0); assay: FLIPR assay in PAR4-expressing HEK293 cells (PAR4 antagonist activity, calcium mobilization); assay type: cell-based; settings: H-Ala-Phe(4-F)-Pro-Gly-Trp-Leu-Val-Lys-Asn-Gly-NH2-induced calcium mobilization
Sequence (Q96RI0 18-385): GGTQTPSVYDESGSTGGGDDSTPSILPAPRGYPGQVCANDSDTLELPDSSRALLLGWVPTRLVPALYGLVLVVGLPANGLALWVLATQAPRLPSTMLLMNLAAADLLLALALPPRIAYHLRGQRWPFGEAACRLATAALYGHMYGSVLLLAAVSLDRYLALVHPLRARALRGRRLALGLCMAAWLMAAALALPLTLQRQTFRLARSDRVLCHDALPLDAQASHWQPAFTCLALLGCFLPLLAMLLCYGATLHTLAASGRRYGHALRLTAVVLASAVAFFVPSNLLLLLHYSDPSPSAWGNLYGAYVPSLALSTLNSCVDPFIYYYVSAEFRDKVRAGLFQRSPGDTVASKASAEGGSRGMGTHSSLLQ
Procedure, shortened: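 HEK293 EBNA cells stably expressing human PAR4 (also endogenous PAR1) preincubated 30 min at room temperature with compound in HBSS/10 mM HEPES, 0.67% DMSO final. PAR4 agonist peptide then added and intracellular calcium mobilization monitored by fluorescence.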

Structure (SMILES) | EC50 [nM]
CCc1sc(N2CCOCC2)nc1COc1cc(OC)cc2oc(-c3cn4nc(C)ccc4n3)cc12 [Example 238] | 0.73
COc1cc(OCc2csc(N3CC4(COC4)C3)n2)c2cc(-c3cn4nc(OC)sc4n3)oc2c1 [Example 104, 6-(4-(((6-Methoxy-2-(2-methoxyimidazo[2,1-b][1,3,4]thiadiazol-6-yl)benzofuran-4-yl)oxy)methyl)thiazol-2-yl)-2-oxa-6-azaspiro[3.3]heptane] | 0.68
COc1cc(OCc2csc(C3(N[S@+]([O-])C(C)(C)C)CCOCC3)n2)c2cc(-c3cn4nc(OC)sc4n3)oc2c1 [Example 170, (R)-N-(4-(4-(((6-Methoxy-2-(2-methoxyimidazo[2,1-b][1,3,4]thiadiazol-6-yl)benzofuran-4-yl)oxy)methyl)thiazol-2-yl)tetrahydro-2H-pyran-4-yl)-2-methylpropane-2-sulfinamide] | 1.7
COc1cc(OCc2csc(N3CCCOCC3)n2)c2cc(-c3cn4nc(C)ccc4n3)oc2c1 [Example 218] | 0.56
COc1cc(OCc2csc(C3(c4ccc(C)cc4)CCOCC3)n2)c2cc(-c3cn4nc(OC)sc4n3)oc2c1 [Example 157, 2-Methoxy-6-(6-methoxy-4-((2-(4-(p-tolyl)tetrahydro-2H-pyran-4-yl)thiazol-4-yl)methoxy)benzofuran-2-yl)imidazo[2,1-b][1,3,4]thiadiazole] | 3.6
COc1cc(OCc2csc(C3(F)CCCCC3)n2)c2cc(-c3cn4nc(OC)sc4n3)oc2c1 [Example 134, 6-(4-((2-(1-Fluorocyclohexyl)thiazol-4-yl)methoxy)-6-methoxybenzofuran-2-yl)-2-methoxyimidazo[2,1-b][1,3,4]thiadiazole] | 1.2
COc1cc(OCc2csc(N3CC[C@@H](O)C3)n2)c2cc(-c3cn4nc(C)ccc4n3)oc2c1 [Example 253] | 9.7
COc1cc(OCc2csc(NCc3cccc(N(C)C)c3)n2)c2cc(-c3cn4nc(C)ccc4n3)oc2c1 [Example 269] | 2.5
COc1cc(OCc2csc(N3CCN(S(C)(=O)=O)CC3)n2)c2cc(-c3cn4nc(C)ccc4n3)oc2c1 [Example 236] | 1.9
COc1cc(OCc2csc(C3(c4ccc(Cl)cc4)CCOC3)n2)c2cc(-c3cn4nc(OC)sc4n3)oc2c1 (stereo not shown) [Example 163, 6-(4-((2-(3-(4-Chlorophenyl)tetrahydrofuran-3-yl)thiazol-4-yl)methoxy)-6-methoxybenzofuran-2-yl)-2-methoxyimidazo[2,1-b][1,3,4]thiadiazole] | 0.82
COc1cc(OCc2csc(C3(c4cccc(Cl)c4)CCOCC3)n2)c2cc(-c3cn4nc(C)ccc4n3)oc2c1 [Example 240] | 6.9
COc1cc(OCc2csc(C3(c4cccnc4)CCC3)n2)c2cc(-c3cn4nc(OC)sc4n3)oc2c1 [Example 177, 2-Methoxy-6-(6-methoxy-4-((2-(1-(pyridin-3-yl)cyclobutyl)thiazol-4-yl)methoxy)benzofuran-2-yl)imidazo[2,1-b][1,3,4]thiadiazole] | 0.61
COc1cc(OCc2nc(-c3cccc(COC(C)=O)c3)sc2C)c2cc(-c3cn4nc(C)ccc4n3)oc2c1 [Example 229] | 0.76
C=C(c1cncnc1)c1nc(COc2cc(OC)cc3oc(-c4cn5nc(OC)sc5n4)cc23)cs1 [Example 178, 2-Methoxy-6-(6-methoxy-4-((2-(1-(pyrimidin-5-yl)vinyl)thiazol-4-yl)methoxy)benzofuran-2-yl)imidazo[2,1-b][1,3,4]thiadiazole] | 0.87
COc1cc(OCc2csc(C3CCSCC3)n2)c2cc(-c3cn4nc(C)ccc4n3)oc2c1 [Example 204, 4-(((6-Methoxy-2-(6-methylimidazo[1,2-b]pyridazin-2-yl)benzofuran-4-yl)oxy)methyl)-2-(tetrahydro-2H-thiopyran-4-yl)thiazole] | 0.72
COc1cc(OCc2nc(-c3ccc(C(=O)O)cc3)sc2C)c2cc(-c3cn4nc(OC)sc4n3)oc2c1 [Example 46, 4-(4-(((6-Methoxy-2-(2-methoxyimidazo[2,1-b][1,3,4]thiadiazol-6-yl)benzofuran-4-yl)oxy)methyl)-5-methylthiazol-2-yl)benzoic acid] | 2.4
COc1cc(OCc2csc(C3(N)CCOCC3)n2)c2cc(-c3cn4nc(OC)sc4n3)oc2c1 [Example 172, 4-(4-(((6-Methoxy-2-(2-methoxyimidazo[2,1-b][1,3,4]thiadiazol-6-yl)benzofuran-4-yl)oxy)methyl)thiazol-2-yl)tetrahydro-2H-pyran-4-amine, HCl] | 0.94
COc1cc(OCc2csc(C3(c4ccc(C)cc4)CCOCC3)n2)c2cc(-c3cn4nc(C)ccc4n3)oc2c1 [Example 242] | 0.59

More lines, now with the values ahead:

EC50 [nM] | Structure (SMILES)
0.6 | COc1cc(OCc2csc(-c3ccc(C(=O)N4CC(O)C4)cc3)n2)c2cc(-c3cn4nc(OC)sc4n3)oc2c1 [Example 290]
1.7 | COc1cc(OCc2csc(NC(C)C)n2)c2cc(-c3cn4nc(C)ccc4n3)oc2c1 [Example 255]
1.4 | COc1cc(OCc2csc(C(C)(C)c3ccccc3)n2)c2cc(-c3cn4nc(OC)sc4n3)oc2c1 [Example 175, 2-Methoxy-6-(6-methoxy-4-((2-(2-phenylpropan-2-yl)thiazol-4-yl)methoxy)benzofuran-2-yl)imidazo[2,1-b][1,3,4]thiadiazole]
0.47 | CCN(CCC#N)C(=O)c1ccc(-c2nc(COc3cc(F)cc4oc(-c5cn6nc(OC)sc6n5)cc34)cs2)cc1 [Example 180, N-(2-Cyanoethyl)-N-ethyl-4-(4-(((6-fluoro-2-(2-methoxyimidazo[2,1-b][1,3,4]thiadiazol-6-yl)benzofuran-4-yl)oxy)methyl)thiazol-2-yl)benzamide]
1.6 | COc1cc(OCc2csc(-c3ccc(C(=O)N4C(C)CCC4C)cc3)n2)c2cc(-c3cn4nc(OC)sc4n3)oc2c1 (stereo not shown) [Example 317]
0.37 | COc1cc(OCc2csc(-c3ccc(C(=O)N(C)CC4CC4)cc3)n2)c2cc(-c3cn4nc(OC)sc4n3)oc2c1 [Example 314]
1.3 | C[C@H](F)c1nn2cc(-c3cc4c(OCc5csc(-c6ccccc6)n5)cc(F)cc4o3)nc2s1 [Example 195]
0.67 | COc1cc(OCc2csc(-c3cccnc3)n2)c2cc(-c3cn4nc(OC)sc4n3)oc2c1 [Example 82]
0.3 | COc1nn2cc(-c3cc4c(OCc5csc(-c6ccc(C(=O)N(C)C(C)(C)C)cc6)n5)cc(F)cc4o3)nc2s1 [Example 182, N-(tert-Butyl)-4-(4-(((6-fluoro-2-(2-methoxyimidazo[2,1-b][1,3,4]thiadiazol-6-yl)benzofuran-4-yl)oxy)methyl)thiazol-2-yl)-N-methylbenzamide]
0.4 | COc1cc(OCc2csc(C3(O)CCN(C(=O)c4ccccc4)CC3)n2)c2cc(-c3cn4nc(OC)sc4n3)oc2c1 [Example 130, (4-Hydroxy-4-(4-(((6-methoxy-2-(2-methoxyimidazo[2,1-b][1,3,4]thiadiazol-6-yl)benzofuran-4-yl)oxy)methyl)thiazol-2-yl)piperidin-1-yl)(phenyl)methanone]
1.2 | COc1cc(OCc2csc(Nc3ccc(Br)cc3C)n2)c2cc(-c3cn4nc(OC)sc4n3)oc2c1 [Example 108, N-(4-Bromo-2-methylphenyl)-4-(((6-methoxy-2-(2-methoxyimidazo[2,1-b][1,3,4]thiadiazol-6-yl)benzofuran-4-yl)oxy)methyl)thiazol-2-amine]
1.4 | COc1cc(OCc2csc(-c3ccc(OC(F)(F)F)cc3)n2)c2cc(-c3cn4nc(OC)sc4n3)oc2c1 [Example 29]
0.64 | COc1cc(OCc2csc(-c3cccc(C#N)c3)n2)c2cc(-c3cn4nc(OC)sc4n3)oc2c1 [Example 61]
0.45 | COC(=O)c1ccc(-c2nc(COc3cc(OC)cc4oc(-c5cn6nc(OC)sc6n5)cc34)cs2)cc1 [Example 37, Methyl 4-(4-(((6-methoxy-2-(2-methoxyimidazo[2,1-b][1,3,4]thiadiazol-6-yl)benzofuran-4-yl)oxy)methyl)thiazol-2-yl)benzoate]
1.3 | COc1cc(OCc2csc(Br)n2)c2cc(-c3cn4nc(OC)sc4n3)oc2c1 [Example 35]
2.3 | COc1cc(OCc2csc(-c3ccc(C#N)cc3)n2)c2cc(-c3cn4nc(OC)sc4n3)oc2c1 [Example 64]
0.77 | CCN(CC1CC1)C(=O)c1ccc(-c2nc(COc3cc(OC)cc4oc(-c5cn6nc(OC)sc6n5)cc34)cs2)cc1 [Example 312]
0.99 | COc1cc(OCc2csc(-c3ccc(C(=O)N(C)C4COC4)cc3)n2)c2cc(-c3cn4nc(OC)sc4n3)oc2c1 [Example 298]
0.39 | COc1cc(OCc2csc(C(C)(O)C(F)(F)F)n2)c2cc(-c3cn4nc(OC)sc4n3)oc2c1 (stereo not shown) [Example 143]
0.65 | COc1cc(OCc2csc(-c3cccc(O)c3)n2)c2cc(-c3cn4nc(C)ccc4n3)oc2c1 [Example 222]
0.49 | COc1cc(OCc2csc(-c3ccc(COC(C)=O)cc3)n2)c2cc(-c3cn4nc(OC)sc4n3)oc2c1 [Example 68]
0.53 | COc1cc(OCc2csc(-c3ccc(C(=O)N(C)C(C)C)cc3)n2)c2cc(-c3cn4nc(OC)sc4n3)oc2c1 [Example 310]
1.3 | COc1cc(OCc2csc(-c3cnccn3)n2)c2cc(-c3cn4nc(OC)sc4n3)oc2c1 [Example 32]
0.46 | COc1cc(OCc2csc(C3(O)CCOCC3)n2)c2cc(-c3cn4nc([C@H](C)F)sc4n3)oc2c1 [Example 196, (S)-4-(4-(((2-(2-(1-Fluoroethyl)imidazo[2,1-b][1,3,4]thiadiazol-6-yl)-6-methoxybenzofuran-4-yl)oxy)methyl)thiazol-2-yl)tetrahydro-2H-pyran-4-ol]

same assay, conditions: H-Ala-Phe(4-F)-[…]NH2-induced calcium mobilization

Structure (SMILES) | EC50 [nM]
COc1cc(OCc2csc(C3=CCC4(CC3)OCCO4)n2)c2cc(-c3cn4nc(OC)sc4n3)oc2c1 [Example 127, 6-(4-((2-(1,4-Dioxaspiro-[4.5]dec-7-en-8-yl)thiazol-4-yl)methoxy)-6-methoxybenzofuran-2-yl)-2-methoxyimidazo[2,1-b][1,3,4]thiadiazole] | 1.6
